# Source: patent EP0418674A1, “Pharmaceutical preparations for enhanced absorption of antibacterial compounds” (priority 1989, dated 1991)
# Assays:
# [1] = Rectal absorption in vivo (monkeys): plasma level of the antibiotic after suppository; details: for Cmax: both sexes, monkey, plasma, read-out: Cmax Bereich
# Excerpt: Für diesen Versuch wurden männliche und weibliche erwachsene Affen (Papio anubis und Papio hamadryas) im Gewicht vom 12-27 kg verwendet. die über Nacht vor der Verabreichung des Antibiotikums fasten gelassen wurden, dann durch i.m.-Injektionen von Ketamin-Hydrochlorid vor der Verabreichung des Antibiotikums sediert wurden. Aus den nachstehend beschriebenen Formulierungen wurden Suppositorien hergestellt die den Tieren verabreicht wurden. Die Rektalöffnungen wurden dann mit Klebeband verschlossen, um ein Herausdrücken der Suppositorienmasse zu vermeiden.
# Zur Messung der Resorption des Antibiotikums in den Blutstrom wurden Blutproben aus der Femoralregion vor der Verabreichung des Antibiotikums und 15, 30, 60, 120, 240, 360 und 480 Minuten danach entnommen. Proben wurden zentrifugiert und wie oben beschrieben vermessen. Die Resultate sind in Tabelle 3 zusammengestellt: Tabelle 3
# [2] = Oral absorption in vivo (monkeys): plasma concentration of Ceftriaxon after enteric-coated hard gelatin capsules by gavage; set-up: species or system Papio anubis und Papio hamadryas; details: Kontrollwert: 300 mg Ceftriaxon-Na in the same capsule without absorption enhancer
# Excerpt: Erwachsene Affen (Papio anubis und Papio hamadryas) im Gewicht von 12-30 kg wurden über Nacht fasten gelassen, dann durch i.m.-Injektion von Ketaminhydrochlorid vor der Verabreichung des Antibiotikums sediert. Jeder Affe erhielt vier Hartgelatinekapseln durch Schlundsonde mit der folgenden Zusammensetzung:
# Die Kapseln waren mit einem Ueberzug von Polyvinylacetatphthalat (etwa 8% des Kapselgewichtes) versehen.
# Die Plasmakonzentration von Ceftriaxon wurde vor der Verabreichung und 10, 20, 40, 60, 120, 180 und 240 Minuten danach bestimmt.
# [3] = Enteral absorption in vivo (rats): plasma level of the antibiotic after intraduodenal injection, agar plate bioassay; details: rat, 20 mg/kg, enteral (duodenum), Dosis = 5 mg/0,5 ml
# Protocol: Weibliche Ratten im Gewicht von etwa 250 g wurden über Nacht fasten gelassen und mit Metofan anästhesiert. Die Antibiotika wurden in Lösung mit oder ohne Resorptionsverstärker nach Bauchschnitt in das Duodenum unterhalb des Magenausgangs injiziert. Für Vergleichszwecke wurde die Lösung alternativ intravenös in die Schwanzvene appliziert. Die Antibiotika wurden in Wasser gelöst, so dass die Lösungen (mit oder ohne Verstärker) 20 mg/kg, etwa 5 mg pro Ratte, enthielten.
# Die Konzentration des Antibiotikums im Plasma der Ratte wurde nach verschiedenen Zeitintervallen nach intravenöser oder enteraler Verabreichung bestimmt. Blutproben wurden aus der Schwanzvene des Versuchstiers vor der Verabreichung des Antibiotikums und 5, 10, 20, 40, 60, 120, 240 und 360 Minuten danach entnommen, danach zentrifugiert und das Plasma bis zur Analyse eingefroren.
# Antibiotika, die nicht an Plasma gebunden waren, wurden mit Wasser verdünnt und gegen in Wasser hergestellte Standards geprüft. Für gebundene Antibiotika wurde der Einfluss der Proteinbindung eliminiert durch Verdünnen aller Standardlösungen und Proben im gesammelten Plasma. Im Fall von Ceftriaxon und Cefazolin wurde der Effekt der Bindung dadurch berücksichtigt, dass Plasmaproben mit Acetonitril mit einem Verdünnungsfaktor 1:12 deproteinisiert und gegen eine Standardkurve in Wasser verdünnt gemessen wurden. Antibiotikaspiegel wurden wie in Tabelle 1 angegeben auf Agarplatten ermittelt. Tabelle 1
# Die Platten wurden bei 37°C über Nacht bebrütet und die Hemmzonen auf die nächsten […] abgelesen. Die Berechnungen wurden mittels einer Autoassaymaschine (Giles Scientific, Inc., New York) vorgenommen. Vergleiche J.V. Bennett et al., Applied Microbiology 14, 170-177 (1966).
# [4] = 500 mg, rectal suppository, Mit Resorptionsverstärker, Formulierung C (500 mg antibiotic, Labrasol 250 mg, Caprylsäure 200 mg)
# [5] = rectal suppository, Mit Resorptionsverstärker, Formulierung D (500 mg antibiotic, Labrasol 250 mg, Caprylsäure 100 mg, Natriumcaprylat 100 mg)
# [6] = rectal, Kontrolle ohne Resorptionsverstärker
# [7] = rectal suppository, Mit Resorptionsverstärker, Formulierung C (500 mg antibiotic, Labrasol 250 mg, Caprylsäure 200 mg)
Structure (SMILES),"Cmax [1, 4]","Cmax [1, 5]","Cmax [1, 6]","% Bioverfügbarkeit [1, 7]","% Bioverfügbarkeit [1, 5]","% Bioverfügbarkeit [1, 6]",further results
CO[C@@]1(NC(=O)C2SC(=C(C(N)=O)C(=O)O)S2)C(=O)N2C(C(=O)O)=C(CSc3nnnn3C)CS[C@@H]21 (some centres unmarked) [Cefotetan],4300 to 21100 ng/mL,2500 to 61500 ng/mL,2400 to 10100 ng/mL,11.4 ± 7.4%,24.1 ± 12.8%,4.9 ± 3.1%,"Cmax Bereich ([1]; rectal, Kontrolle ohne Resorptionsverstärker, listed as Cefotetran): 3400 to 10100 ng/mL"
"CO/N=C(\C(=O)N[C@@H]1C(=O)N2C(C(=O)O)=C(CSc3nc(=O)c(=O)[nH]n3C)CS[C@H]12)c1csc(N)n1 [Ceftriaxon-Na, Ceftriaxon-Natrium]",,,,,,,Bioverfügbarkeit [2]: 0%
CO/N=C(\C(=O)N[C@@H]1C(=O)N2C(C(=O)O)=C(CSc3nc(=O)c(=O)[nH]n3C)CS[C@H]12)c1csc(N)n1 [Ceftriaxon],21600 to 46600 ng/mL,16300 to 38300 ng/mL,300 to 9000 ng/mL,17.3 ± 4.8%,17.1 ± 5.0%,4.3 ± 2.8%,"Cmax ([3]; female, plasma, other: intraduodenal injection (enteral), Labrasol + Caprylsäure + Natriumcaprylat, weight ratio 4:1:1): 52200 ± 22500 ng/mL; Cmax ([3]; female, plasma, other: intraduodenal injection (enteral), Labrasol + Caprylsäure, weight ratio 2:1): 57000 ± 10200 ng/mL"
CC1(C)S[C@@H]2[C@H](NC(=O)Cc3ccccc3)C(=O)N2[C@H]1C(=O)O [Penicillin G],,,,,,,"Cmax ([3]; in vivo, Labrasol + Caprylsäure + Natriumcaprylat, weight ratio 4:1:1): 2900 ± 1600 ng/mL; Cmax ([3]; in vivo, Labrasol + Caprylsäure, weight ratio 2:1): 7200 ± 700 ng/mL"
CN[C@H](CC(C)C)C(=O)N[C@H]1C(=O)N[C@@H](CC(N)=O)C(=O)N[C@H]2C(=O)N[C@H]3C(=O)N[C@H](C(=O)N[C@H](C(=O)O)c4cc(O)cc(O)c4-c4cc3ccc4O)[C@H](O)c3ccc(c(Cl)c3)Oc3cc2cc(c3O[C@@H]2O[C@H](CO)[C@@H](O)[C@H](O)[C@H]2O[C@H]2C[C@](C)(N)[C@H](O)[C@H](C)O2)Oc2ccc(cc2Cl)[C@H]1O [Vancomycin],,,,,,,"Cmax ([3]; female, in vivo, Labrasol + Caprylsäure + Natriumcaprylat, weight ratio 4:1:1): 5300 ± 2100 ng/mL; Cmax ([3]; female, in vivo, Labrasol + Caprylsäure, weight ratio 2:1): 8000 ± 2300 ng/mL"
